The test system of series [1] is viruses including COVID-19 viruses. Conditions: cited from earlier work.
A further series relates to patients with COPD. Conditions: cited from earlier work.
The next series deals with inhalation injury (IHI). Conditions: nebulized; cited from earlier work.
The conditions of series [2]: cited from earlier work.
Series [3] has as its target SARS-CoV-2 spike glycoprotein (SGP) (Severe acute respiratory syndrome coronavirus 2, UniProt P0DTC2). Conditions: cited from earlier work.
Series [4] relates to severe coronavirus disease 2019 patients with coagulopathy. Conditions: cited from earlier work.
A short description of series [5]: Encapsulation efficiency and loading capacity of niclosamide by HPLC. Conditions: niclosamide in niclosamide, HPLC 333-346 nm.
The subject of another series is COVID-19. Conditions: cited from earlier work.
In a further series the test system is SARS-CoV-2. Conditions: in vitro; cited from earlier work.
The subject of the next series is SARS-CoV. Conditions: by interfering with glycosylation of ACE2; cited from earlier work.

Consider 3 compounds from US12246089B2, “Method for treatment of a viral-mediated infectious disease” (Virothera Pharmaceuticals LLC, priority 2020, dated 2025).

Like-named read-outs stand apart in the source and are kept apart here.

As to heparin, the “binding affinity to viruses” value in series [1] is “nanomolar to sub-nanomolar”. The lung function entry with patients with COPD (inhaled, 21 days of treatment, COPD patients receiving pulmonary rehabilitation) was “significantly improves lung function”. Also, the “safety of inhaled nebulized UFH” value with patients with COPD (patients with moderate to very severe COPD) is reported as “safe”. Further, in the series on inhalation injury (IHI), the “lung function and mortality in IHI” value was “promotes improvement in lung function and decreased mortality”. Further, the plasma protein binding result in series [2] is given as “high plasma protein binding”. Further, the SGP binding affinity entry in [3] is on record as “high sub-nanomolar affinity”. In addition, the mortality in [4] (patients meeting sepsis induced coagulopathy (SIC) criteria ≥4, heparin therapy (vs 64.2%, P=0.029)) is given as 40.0%; in series [4] (patients with SIC score <4, heparin therapy (vs 22.6%, P=0.419)), 29.0%.
With `O=C(Nc1ccc([N+](=O)[O-])cc1Cl)c1cc(Cl)ccc1O` [niclosamide], in series [5], the encapsulation efficiency came to 90% and the loading capacity amounted to 10.0%.
With `CCN(CCO)CCCC(C)Nc1ccnc2cc(Cl)ccc12` (stereo not drawn) [hydroxychloroquine], the “clinical benefit of combination with azithromycin” value in the series with COVID-19 (11 patients with severe COVID-19) was “no evidence of clinical benefit”. The “effectiveness in COVID-19-associated pneumonia” value with COVID-19 (several clinical trials in China) was “to various degree effective”. The “clinical effect in combination with azithromycin” value in the series with COVID-19 (small open-label non-randomized clinical trial from France) is recorded as “positive effect”. Also, the “viral copy number of SARS-CoV-2” value in the series on SARS-CoV-2 was “effectively reduce the viral copy number”. Also, in the series on SARS-CoV, the “replication of SARS-CoV” value is on record as “specifically inhibit the replication of SARS-CoV”.
